From US10556898B2, “Indazolyl-1,2,4-thiadiazolamines and related compounds for inhibition of Rho-associated protein kinase and the treatment of disease” (Lycera Corporation, priority 2016, dated 2020)
Read-outs that look alike come from different tables or passages of the source.

Assays:
[1] = rat stroke model; cited from earlier work
[2] = porcine model of IL-1 beta-induced coronary stenosis; cited from earlier work
[3] = molecular target: T1, GST-tagged human ROCK1 catalytic domain 1-477 (Homo sapiens, UniProt Q13464); assay: Isolated Enzyme Assay, ROCK1 (LANCE Ultra ULight-CREBtide FRET); format: biochemical; conditions: 30 μM highest concentration tested, read-out: Results from Isolated Enzyme Assay IC50 (μM) ROCK1
T1 construct: human ROCK1 catalytic domain 1-477 from Carna Biosciences (cat #01-109); purchased Carna Biosciences 01-109; host or cells: baculovirus expression system
T1 sequence (Q13464 1-477): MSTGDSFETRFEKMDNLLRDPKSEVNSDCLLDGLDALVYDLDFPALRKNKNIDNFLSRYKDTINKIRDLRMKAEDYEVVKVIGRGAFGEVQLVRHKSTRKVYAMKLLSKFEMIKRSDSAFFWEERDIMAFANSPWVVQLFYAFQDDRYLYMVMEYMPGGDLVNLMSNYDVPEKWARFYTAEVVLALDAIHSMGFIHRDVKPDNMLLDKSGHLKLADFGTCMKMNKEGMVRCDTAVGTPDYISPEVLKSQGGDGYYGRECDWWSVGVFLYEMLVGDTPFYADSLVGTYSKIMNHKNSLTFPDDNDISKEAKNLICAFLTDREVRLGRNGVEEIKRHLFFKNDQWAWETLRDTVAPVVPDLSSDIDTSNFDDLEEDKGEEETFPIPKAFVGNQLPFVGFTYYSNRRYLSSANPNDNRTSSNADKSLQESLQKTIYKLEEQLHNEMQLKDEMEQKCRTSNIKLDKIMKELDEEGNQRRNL
How it was run: (§1)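 Baculovirus-expressed constitutively active ROCK1 or ROCK2 (2 nM) incubated 90 min at room temperature with 50 nM ULight-CREBtide and compound (0.5% DMSO) in Tris pH 7.5, MgCl2, EGTA, Tween-20, DTT. EDTA-stopped; phospho-substrate detected by Eu-anti-phospho-CREB TR-FRET after 60 min; IC50 by non-linear regression.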

[4] = molecular target: T2, ROCK1 (Homo sapiens, UniProt Q13464); assay: Cell-Based Assay, ROCK1 (HAP1 knockout cells, phospho-MYPT1 Thr853 ELISA); conditions: read-out: Results from Cell-Based Assay IC50 (μM) ROCK1
T2 construct: endogenous in cells; host or cells: HAP1 knockout cells
T2 sequence (Q13464 whole entry): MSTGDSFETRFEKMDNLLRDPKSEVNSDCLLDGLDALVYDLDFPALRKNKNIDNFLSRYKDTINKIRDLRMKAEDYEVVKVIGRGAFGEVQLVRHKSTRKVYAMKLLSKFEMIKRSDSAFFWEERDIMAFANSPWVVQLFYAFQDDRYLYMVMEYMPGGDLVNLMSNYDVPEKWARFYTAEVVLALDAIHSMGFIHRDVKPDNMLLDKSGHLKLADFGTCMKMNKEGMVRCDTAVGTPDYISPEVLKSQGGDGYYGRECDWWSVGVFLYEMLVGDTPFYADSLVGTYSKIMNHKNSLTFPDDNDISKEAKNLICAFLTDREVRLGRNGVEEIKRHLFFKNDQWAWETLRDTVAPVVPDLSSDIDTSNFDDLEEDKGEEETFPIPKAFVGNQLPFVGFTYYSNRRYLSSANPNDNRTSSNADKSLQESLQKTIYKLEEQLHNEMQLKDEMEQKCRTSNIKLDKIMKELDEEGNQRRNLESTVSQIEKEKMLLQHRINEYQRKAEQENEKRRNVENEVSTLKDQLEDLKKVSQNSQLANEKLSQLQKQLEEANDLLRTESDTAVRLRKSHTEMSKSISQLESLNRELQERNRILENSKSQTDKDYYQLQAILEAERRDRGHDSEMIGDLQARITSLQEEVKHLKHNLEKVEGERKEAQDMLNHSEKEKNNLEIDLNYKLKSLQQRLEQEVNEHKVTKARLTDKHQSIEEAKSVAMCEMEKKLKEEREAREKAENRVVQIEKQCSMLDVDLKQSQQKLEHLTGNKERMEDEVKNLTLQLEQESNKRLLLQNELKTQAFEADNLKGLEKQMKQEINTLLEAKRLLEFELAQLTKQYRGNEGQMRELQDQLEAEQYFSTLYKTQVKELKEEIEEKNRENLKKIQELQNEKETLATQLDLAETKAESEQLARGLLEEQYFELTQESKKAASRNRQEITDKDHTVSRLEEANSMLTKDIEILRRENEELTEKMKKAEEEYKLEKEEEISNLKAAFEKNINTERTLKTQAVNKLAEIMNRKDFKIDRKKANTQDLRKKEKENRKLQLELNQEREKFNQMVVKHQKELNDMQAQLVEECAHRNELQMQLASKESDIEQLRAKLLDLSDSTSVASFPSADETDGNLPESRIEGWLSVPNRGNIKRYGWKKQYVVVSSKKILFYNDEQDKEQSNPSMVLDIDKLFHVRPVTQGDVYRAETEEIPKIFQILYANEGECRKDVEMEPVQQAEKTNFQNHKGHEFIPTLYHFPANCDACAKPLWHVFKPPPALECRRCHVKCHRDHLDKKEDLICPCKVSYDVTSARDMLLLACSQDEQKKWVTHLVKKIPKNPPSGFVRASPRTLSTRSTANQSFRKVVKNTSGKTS
Experimental: Part II—Procedure for Determining ROCK Inhibition Ability of Test Compounds Using a Cell-Base Assay
The Cell-Based Assay for determining ROCK inhibition ability of test compounds utilized a genetically modified HAP1 cell line engineered to eliminate expression of either ROCK1 or ROCK2. In the procedure, HAP1 knockout cells are grown in Iscove's Modified Dulbecco's Medium that is additionally supplemented with 10% fetal bovine and 1x antibiotic-antimycotic mixture. Cells are plated in 96 well tissue culture plates at 1×10^5 cells/well (100 μL, of cells at 1×10^6/mL). Test compounds are solubilized in DMSO and diluted into the same media used to grow the cells. A 100 μL, aliquot of each compound dilution in media is added to each well containing the HAP1 cells and incubated at 37° C. for 30 minutes. Following compound incubation, the cells are pelleted by centrifugation at 1800 rpm for 5 minutes at 4° C. Media is removed from the cell pellet and the cells lysed and de-salted. An 80 μL, aliquot of each cell lysate is added to a single well of a 96-well high binding ELISA plate which has been pre-coated with a MYPT1 capture antibody and incubated at 4° C. overnight. The following day the ELISA plate is washed 4× with 0.05% Tween-20 in PBS. After washing, an anti-phospho-MYPT1 (Thr853) antibody is added and allowed to bind for 1 hour at room temperature. The wash step is repeated, and then an anti-rabbit HRP detection antibody is added and allowed to incubate at room temperature for 1 hour. The wash step is then repeated and 100 μL/well 1-Step™ Ultra TMB substrate is added to the ELISA plate and allowed to develop for approximately 5 minutes. The reaction is stopped by addition of H2SO4. Absorbance is read at 450 OD. Data is analyzed using GraphPad Prism software to calculate the 50% inhibitory concentration of test compound (IC50).

[5] = molecular target: T3, GST-tagged human ROCK2 catalytic domain 1-553 (Homo sapiens, UniProt O75116); assay: Isolated Enzyme Assay, ROCK2 (LANCE Ultra ULight-CREBtide FRET); format: biochemical; conditions: 30 μM highest concentration tested, read-out: Results from Isolated Enzyme Assay IC50 (μM) ROCK2
T3 construct: GST-tagged human ROCK2 catalytic domain 1-553 from Carna Biosciences (Cat #01-110); purchased Carna Biosciences 01-110; host or cells: baculovirus expression system
T3 sequence (O75116 1-553): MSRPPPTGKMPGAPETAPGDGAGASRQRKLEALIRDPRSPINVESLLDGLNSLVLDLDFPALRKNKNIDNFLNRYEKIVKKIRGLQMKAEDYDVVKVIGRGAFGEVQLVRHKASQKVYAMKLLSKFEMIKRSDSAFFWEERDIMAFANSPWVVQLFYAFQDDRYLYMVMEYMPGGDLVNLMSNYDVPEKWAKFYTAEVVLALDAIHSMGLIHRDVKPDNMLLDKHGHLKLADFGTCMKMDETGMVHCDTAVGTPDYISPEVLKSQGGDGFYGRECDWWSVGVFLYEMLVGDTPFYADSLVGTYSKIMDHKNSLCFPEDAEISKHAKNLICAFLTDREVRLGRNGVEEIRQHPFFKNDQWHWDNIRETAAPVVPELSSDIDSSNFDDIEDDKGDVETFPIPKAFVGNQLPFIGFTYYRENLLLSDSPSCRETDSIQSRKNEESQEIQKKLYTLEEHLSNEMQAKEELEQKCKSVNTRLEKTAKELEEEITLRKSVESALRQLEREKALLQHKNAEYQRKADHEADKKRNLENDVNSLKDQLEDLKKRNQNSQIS
How it was run: as §1

[6] = molecular target: T4, ROCK2 (Homo sapiens, UniProt O75116); assay: Cell-Based Assay, ROCK2 (HAP1 knockout cells, phospho-MYPT1 Thr853 ELISA); conditions: read-out: Results from Cell-Based Assay IC50 (μM) ROCK2
T4 construct: endogenous in cells; host or cells: HAP1 knockout cells
T4 sequence (O75116 whole entry): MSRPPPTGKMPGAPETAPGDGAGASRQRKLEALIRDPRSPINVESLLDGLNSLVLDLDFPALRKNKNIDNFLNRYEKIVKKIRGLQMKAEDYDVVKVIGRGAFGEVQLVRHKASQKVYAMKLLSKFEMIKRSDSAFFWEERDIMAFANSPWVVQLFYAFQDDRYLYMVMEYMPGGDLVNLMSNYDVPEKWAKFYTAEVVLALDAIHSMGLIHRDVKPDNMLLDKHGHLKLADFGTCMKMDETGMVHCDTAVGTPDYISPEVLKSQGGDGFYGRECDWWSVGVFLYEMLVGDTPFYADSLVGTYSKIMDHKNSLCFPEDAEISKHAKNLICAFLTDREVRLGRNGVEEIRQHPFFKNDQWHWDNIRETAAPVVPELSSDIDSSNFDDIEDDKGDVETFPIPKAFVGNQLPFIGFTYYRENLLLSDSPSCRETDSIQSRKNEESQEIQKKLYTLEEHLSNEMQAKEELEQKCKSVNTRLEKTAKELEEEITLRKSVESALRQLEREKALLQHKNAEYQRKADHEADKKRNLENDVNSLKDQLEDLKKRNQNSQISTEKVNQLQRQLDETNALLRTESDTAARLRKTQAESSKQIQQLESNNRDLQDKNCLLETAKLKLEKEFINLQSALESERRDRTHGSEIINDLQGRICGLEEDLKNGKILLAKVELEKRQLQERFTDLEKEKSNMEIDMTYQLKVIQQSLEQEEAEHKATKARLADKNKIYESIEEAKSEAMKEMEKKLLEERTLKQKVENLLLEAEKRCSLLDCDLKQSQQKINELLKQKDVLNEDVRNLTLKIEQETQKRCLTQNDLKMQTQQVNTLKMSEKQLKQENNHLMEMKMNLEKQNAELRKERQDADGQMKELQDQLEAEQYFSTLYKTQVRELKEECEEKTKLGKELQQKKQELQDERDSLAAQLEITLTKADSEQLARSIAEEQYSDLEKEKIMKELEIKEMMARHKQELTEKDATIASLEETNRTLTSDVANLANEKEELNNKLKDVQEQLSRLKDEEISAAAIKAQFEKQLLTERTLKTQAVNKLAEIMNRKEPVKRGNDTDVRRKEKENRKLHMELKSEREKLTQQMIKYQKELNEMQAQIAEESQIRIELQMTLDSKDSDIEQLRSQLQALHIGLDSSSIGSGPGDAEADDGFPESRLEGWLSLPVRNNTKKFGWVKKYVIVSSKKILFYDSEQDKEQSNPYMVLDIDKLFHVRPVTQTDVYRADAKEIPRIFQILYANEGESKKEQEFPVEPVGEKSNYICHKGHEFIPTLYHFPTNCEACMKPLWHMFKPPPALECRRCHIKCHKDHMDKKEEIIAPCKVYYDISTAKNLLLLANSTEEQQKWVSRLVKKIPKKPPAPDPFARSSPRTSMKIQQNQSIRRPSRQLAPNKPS

[7] = phospho-MYPT1, 30 μM highest concentration tested

IC50 ([3]; isolated enzyme assay) [µM]	IC50 ([4]; numeric bound) [µM]	IC50 ([5]; isolated enzyme assay) [µM]	IC50 ([6]; class symbols) [µM]	IC50 ([4]; class symbols) [µM]	SMILES	other results
					O=S(=O)(c1cccc2cnccc12)N1CCCNCC1 [fasudil]	infarct size and neurologic deficit [1]: reduce both the infarct size and neurologic deficit; coronary stenosis [2]: progressively reduce coronary stenosis
< 1	> 10	< 1	< 1		Cc1cc(NC(=O)c2cocn2)cc(-c2nsc(Nc3ccc4[nH]ncc4c3Cl)n2)n1 [IV-19]	
< 1		< 1	< 1	1 to 15	CC1(C)CN(c2cccc(-c3nsc(Nc4ccc5[nH]ncc5c4Cl)n3)c2)C(=O)O1 [IV-54]	
< 1	> 10	< 1			Cc1cc(NC(=O)c2ccnn2C)cc(-c2nsc(Nc3ccc4[nH]ncc4c3Cl)n2)n1 [IV-13]	IC50 ([6]; numeric bound): > 10 µM
					Cn1nccc1C(=O)Nc1cccc(-c2nsc(Nc3ccc4[nH]ncc4c3Cl)n2)c1 [Compound A-3]	IC50 ([3]; isolated enzyme): < 1 µM; IC50 [4, 7]: 1 to 15 µM; IC50 ([5]; isolated enzyme): < 1 µM; IC50 [6, 7]: < 1 µM
< 1	> 10	< 1	< 1		Cn1cc(C(=O)Nc2cccc(-c3nsc(Nc4ccc5[nH]ncc5c4Cl)n3)c2)cn1 [IV-78]	
< 1		< 1	< 1	1 to 15	CC(C)NC(=O)c1cc(-c2nsc(Nc3ccc4[nH]ncc4c3Cl)n2)ccc1F [IV-14]	
< 1		< 1	< 1	1 to 15	CC(C)c1cc(C(=O)Nc2cccc(-c3nsc(Nc4ccc5[nH]ncc5c4Cl)n3)c2)n(C)n1 [IV-63]	
< 1	> 10	< 1	< 1		Cn1nccc1C(=O)Nc1cc(-c2nsc(Nc3ccc4[nH]ncc4c3Cl)n2)cn(C)c1=O [IV-6]	
< 1		< 1	< 1	1 to 15	CC(C)NC(=O)COc1cccc(-c2nsc(Nc3ccc4[nH]ncc4c3Cl)n2)c1 [IV-9]	
< 1		< 1	< 1	1 to 15	O=C1OCCN1c1cccc(-c2nsc(Nc3ccc4[nH]ncc4c3Cl)n2)c1 [IV-55]	
< 1		< 1	< 1	1 to 15	O=C(Nc1ccccn1)c1cccc(-c2nsc(Nc3ccc4[nH]ncc4c3Cl)n2)c1 [IV-66]	
< 1		< 1	< 1	1 to 15	O=C(NC1CCOCC1)c1cc(-c2nsc(Nc3ccc4[nH]ncc4c3Cl)n2)ccc1F [IV-47]	
